In patent US10654834B2 (Venenum Biodesign, LLC, priority 2016, dated 2020):

Assays:
human TGR5 receptor = molecular target: T1, human TGR5 receptor (Homo sapiens, UniProt Q8TDU6); assay: Human TGR5 cAMP production assay (hTGR5-CHO cells, DiscoveRx cAMP XS+ kit); assay type: cell-based; conditions: luminescent cAMP assay, read-out: Human TGR5 Lum. cAMP Activity (EC50)
T1 construct: host or cells: CHO-K1 (hTGR5-CHO)
T1 sequence (Q8TDU6 1-330): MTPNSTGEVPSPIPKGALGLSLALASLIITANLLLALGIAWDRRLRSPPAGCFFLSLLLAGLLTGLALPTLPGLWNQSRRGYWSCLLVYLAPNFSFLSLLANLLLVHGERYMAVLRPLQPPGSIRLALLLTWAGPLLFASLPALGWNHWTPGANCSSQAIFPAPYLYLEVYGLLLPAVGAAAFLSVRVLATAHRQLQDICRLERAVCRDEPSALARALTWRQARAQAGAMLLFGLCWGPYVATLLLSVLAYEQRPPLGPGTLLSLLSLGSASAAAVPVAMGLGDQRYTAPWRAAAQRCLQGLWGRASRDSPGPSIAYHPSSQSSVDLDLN
Method in brief: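 EC50 values come from luminescent enzyme-complementation cAMP detection, read after overnight incubation. Beforehand, hTGR5-expressing CHO-K1 cells with IBMX and anti-cAMP antibody were exposed 1 h at room temperature to serially diluted (half-log) compounds.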

mouse TGR5 receptor = molecular target: T2, mouse TGR5 receptor (Mus musculus, UniProt Q80SS6); assay: Mouse TGR5 HTRF cAMP production assay (HEK293-EBNA cells, Cisbio cAMP HiRange kit); assay type: cell-based; conditions: HEK293-EBNA cells overexpressing mouse TGR5, HTRF cAMP assay
T2 construct: host or cells: HEK293-EBNA (293 c18, ATCC CRL10852)
T2 sequence (Q80SS6 1-329): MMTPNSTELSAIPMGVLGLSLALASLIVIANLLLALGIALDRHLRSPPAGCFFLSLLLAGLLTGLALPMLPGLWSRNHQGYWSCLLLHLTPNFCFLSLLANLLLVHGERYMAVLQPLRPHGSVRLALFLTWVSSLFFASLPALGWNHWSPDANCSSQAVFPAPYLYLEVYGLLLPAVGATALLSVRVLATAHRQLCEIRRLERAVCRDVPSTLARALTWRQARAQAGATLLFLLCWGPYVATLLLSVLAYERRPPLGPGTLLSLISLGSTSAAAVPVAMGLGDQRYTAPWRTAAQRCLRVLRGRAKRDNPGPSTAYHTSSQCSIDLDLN
Method in brief: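 cAMP accumulation was read by competitive HTRF after 1 h room-temperature compound treatment, with a further 1 h conjugate incubation. Cells were mouse TGR5-overexpressing HEK293-EBNA in serum-free DMEM plus 500 μM IBMX. Compounds ran as 12-point half-log series in duplicate, and EC50 values were reported.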

SMILES	EC50 (human TGR5 receptor) [nM]	EC50 (mouse TGR5 receptor) [nM]
N#C/N=C(\NCCC(=O)O)NCCC1CCN(c2cc(N3CC[C@H]3C(=O)NCCc3ccc(C#N)cc3)nc(C(F)(F)F)n2)CC1 [Compound 351, (S,Z)-3-(2-cyano-3-(2-(1-(6-(2-((4-cyanophenethyl)carbamoyl)azetidin-1-yl)-2-(trifluoromethyl)pyrimidin-4-yl)piperidin-4-yl)ethyl)guanidino)propanoic acid]	< 100	< 100
N#Cc1ccc(CCNC(=O)[C@@H]2CCN2c2cc(N3CCC(CCCC(=O)NC[C@@H](O)[C@H](O)[C@@H](O)[C@@H](O)CO)CC3)nc(C(F)(F)F)n2)cc1 [Compound 260, (S)—N-(4-cyanophenethyl)-1-(6-(4-(4-oxo-4-(((2R,3S,4S,5S)-2,3,4,5,6-pentahydroxyhexyl)amino)butyl)piperidin-1-yl)-2-(trifluoromethyl)pyrimidin-4-yl)azetidine-2-carboxamide]	< 100	< 100
COc1cc(C(F)(F)F)ccc1CCNC(=O)[C@@H]1CCCN1c1cc(N2CCC(CCCC(=O)NCCS(=O)(=O)O)CC2)nc(C(F)(F)F)n1 [Compound 57, (S)-2-(4-(1-(6-(2-((2-methoxy-4-(trifluoromethyl)phenethyl)carbamoyl)-pyrrolidin-1-yl)-2-(trifluoromethyl)-pyrimidin-4-yl)piperidin-4-yl)butanamido)ethanesulfonic acid]	< 100	< 100
N#Cc1ccc(CCNC(=O)[C@@H]2CCN2c2cc(N3CCC(CCCC(=O)NCP(=O)(O)O)CC3)nc(C(F)(F)F)n2)cc1 [Compound 362, (S)-((4-(1-(6-(2-((4-cyanophenethyl)carbamoyl)azetidin-1-yl)-2-(trifluoromethyl)pyrimidin-4-yl)piperidin-4-yl)butanamido)methyl)phosphonic acid]	< 100	< 100
N#Cc1ccc(CCNC(=O)[C@@H]2CCCN2c2cc(N3CCC(CCCC(=O)NCCNC(=N)N)CC3)nc(C(F)(F)F)n2)cc1 [Compound 128, (S)-N-(4-cyanophenethyl)-1-(6-(4-(4-((2-guanidinoethyl)amino)-4-oxobutyl)piperidin-1-yl)-2-(trifluoromethyl)pyrimidin-4-yl)pyrrolidine-2-carboxamide]	< 100	< 100
N#CCCN1CCN(c2cc(N3CCC[C@H]3C(=O)NCCc3ccc(C#N)cc3)nc(C(F)(F)F)n2)CC1 [Compound 32]	< 100	< 100
COc1cc(C(F)(F)F)ccc1CCNC(=O)[C@@H]1CCCN1c1cc(N2CCC(CCCC(=O)O)CC2)nc(C(F)(F)F)n1 [Compound 34]	< 100	< 100
N#Cc1ccc(CCNC(=O)[C@@H]2CCN2c2cc(N3CCC(CCNc4c(NCC(=O)O)c(=O)c4=O)CC3)nc(C(F)(F)F)n2)cc1 [Compound 302, (S)-2-((2-((2-(1-(6-(2-((4-cyanophenethyl)carbamoyl)azetidin-1-yl)-2-(trifluoromethyl)pyrimidin-4-yl)piperidin-4-yl)ethyl)amino)-3,4-dioxocyclobut-1-en-1-yl)amino)acetic acid]	< 100	< 100
NS(=O)(=O)CCNC(=O)CCCC1CCN(c2cc(N3CCC[C@H]3C(=O)NCCc3ccc(C(F)(F)F)cc3)nc(C(F)(F)F)n2)CC1 [Compound 59, (S)-1-(6-(4-(4-oxo-4-((2-sulfamoylethyl)amino)butyl)piperidin-1-yl)-2-(trifluoromethyl)pyrimidin-4-yl)-N-(4-(trifluoromethyl)phenethyl)-pyrrolidine-2-carboxamide]	< 100	< 100
COc1cc(C(F)(F)F)ccc1CCNC(=O)[C@@H]1CCN1c1cc(N2CCC(CCC(=O)O)CC2)nc(C(F)(F)F)n1 [Compound 239, (S)-3-(1-(6-(2-((2-methoxy-4-(trifluoromethyl)phenethyl)carbamoyl)azetidin-1-yl)-2-(trifluoromethyl)pyrimidin-4-yl)piperidin-4-yl)propanoic acid]	< 100	< 100
O=C(CCCC1CCN(c2cc(N3CCC[C@H]3C(=O)NCCc3ccc(C(F)(F)F)cc3)nc(C(F)(F)F)n2)CC1)NCCS(=O)(=O)O [Compound 58, (S)-2-(4-(1-(2-(trifluoromethyl)-6-(2-((4-(trifluoromethyl)phenethyl)-carbamoyl)-pyrrolidin-1-yl)-pyrimidin-4-yl)piperidin-4-yl)butanamido)ethanesulfonic acid]	< 100	< 100
N#Cc1ccc(CCNC(=O)[C@@H]2CCCN2c2cc(N3CCC(CCNC(=O)NCP(=O)(O)O)CC3)nc(C(F)(F)F)n2)cc1 [Compound 372, (S)-((3-(2-(1-(6-(2-((4-cyanophenethyl)carbamoyl)pyrrolidin-1-yl)-2-(trifluoromethyl)pyrimidin-4-yl)piperidin-4-yl)ethyl)ureido)methyl)phosphonic acid]	< 100	< 100
O=C(O)CCCC1CCN(c2cc(N3CCC[C@@H](C(=O)NCCc4ccc(C(F)(F)F)cc4)C3)nc(C(F)(F)F)n2)CC1 [Compound 330, (R)-4-(1-(2-(trifluoromethyl)-6-(3-((4-(trifluoromethyl)phenethyl)carbamoyl)piperidin-1-yl)pyrimidin-4-yl)piperidin-4-yl)butanoic acid]	< 100	< 100
N#Cc1ccc(CCNC(=O)[C@@H]2CCCN2c2cc(N3CCC(CCCC(=O)NCCS(=O)(=O)O)CC3)nc(C(F)(F)F)n2)cc1 [Compound 61, (S)-2-(4-(1-(6-(2-((4-cyanophenethyl)carbamoyl)pyrrolidin-1-yl)-2-(trifluoromethyl)pyrimidin-4-yl)-piperidin-4-yl)butanamido)ethanesulfonic acid]	< 100	< 100
N#Cc1ccc(CCNC(=O)[C@@H]2CCCN2c2cc(N3CCC(CCCC(=O)N[C@@H](CCCNC(=N)N)C(=O)N[C@@H](CCCNC(=N)N)C(=O)O)CC3)cc(C(F)(F)F)n2)cc1 [Compound 202, (S)-2-((S)-2-(4-(1-(2-((S)-2-((4-cyanophenethyl)carbamoyl)pyrrolidin-1-yl)-6-(trifluoromethyl)pyridin-4-yl)piperidin-4-yl)butanamido)-5-guanidinopentanamido)-5-guanidinopentanoic acid]	< 100	< 100
N#Cc1ccc(CCNC(=O)[C@@H]2CCCN2c2cc(N3CCC(CCNC(=O)[C@@H](N)CS(=O)(=O)O)CC3)nc(C(F)(F)F)n2)cc1 [Compound 123, (R)-2-amino-3-((2-(1-(6-((S)-2-((4-cyanophenethyl)carbamoyl)pyrrolidin-1-yl)-2-(trifluoromethyl)pyrimidin-4-yl)piperidin-4-yl)ethyl)amino)-3-oxopropane-1-sulfonic acid]	< 100	< 100
O=C(CCC1CCN(c2cc(N3CC[C@H]3C(=O)NCCc3ccc(C(F)(F)F)cc3)nc(C(F)(F)F)n2)CC1)NCS(=O)(=O)O [Compound 253, (S)-(3-(1-(2-(trifluoromethyl)-6-(2-((4-(trifluoromethyl)phenethyl)-carbamoyl)azetidin-1-yl)pyrimidin-4-yl)piperidin-4-yl)propanamido)-methanesulfonic acid]	< 100	< 100
N#Cc1ccc(CCNC(=O)[C@@H]2CCCN2c2cc(N3CCC(OCC#CCS(=O)(=O)O)CC3)nc(C(F)(F)F)n2)cc1 [Compound 134, (S)-4-((1-(6-(2-((4-cyanophenethyl)carbamoyl)pyrrolidin-1-yl)-2-(trifluoromethyl)pyrimidin-4-yl)piperidin-4-yl)oxy)but-2-yne-1-sulfonic acid]	< 100	< 100
N#Cc1ccc(CCNC(=O)[C@@H]2CCCN2c2cc(N3CCC(CCNc4c(NCP(=O)(O)O)c(=O)c4=O)CC3)nc(C(F)(F)F)n2)cc1 [Compound 369, (S)-(((2-((2-(1-(6-(2-((4-cyanophenethyl)carbamoyl)pyrrolidin-1-yl)-2-(trifluoromethyl)pyrimidin-4-yl)piperidin-4-yl)ethyl)amino)-3,4-dioxocyclobut-1-en-1-yl)amino)methyl)phosphonic acid]	< 100	< 100
N#Cc1ccc(CCNC(=O)[C@@H]2CCCN2c2cc(N3CCC(CCCC(=O)NCCCS(=O)(=O)O)CC3)nc(C(F)(F)F)n2)cc1 [Compound 63, (S)-3-(4-(1-(6-(2-((4-cyanophenethyl)carbamoyl)pyrrolidin-1-yl)-2-(trifluoromethyl)pyrimidin-4-yl)-piperidin-4-yl)butanamido)propane-1-sulfonic acid]	< 100	< 100
